Reference: PubChem BioAssay AID1259407 (Chemical Carcinogenesis Research Information System (CCRIS), 2018)
Activity calls are given as the source filed them. No rule for the calls is given here.

System: CCRIS mutagenicity, Ames/micronucleus/aberration tests
Test: CCRIS mutagenicity studies
[1] = Test System: AMES SALMONELLA TYPHIMURIUM, Strain/Indicator: TA98, Metabolic Activation: NONE, Method: PREINCUBATION
[2] = Test System: AMES SALMONELLA TYPHIMURIUM, Strain/Indicator: TA98, Metabolic Activation: NONE, Method: STANDARD PLATE
[3] = Test System: AMES SALMONELLA TYPHIMURIUM, Strain/Indicator: TA98, Metabolic Activation: RAT, LIVER, S-9, AROCLOR 1254, Method: PREINCUBATION
[4] = Test System: AMES SALMONELLA TYPHIMURIUM, Strain/Indicator: TA98, Metabolic Activation: RAT, LIVER, S-9, AROCLOR 1254, Method: STANDARD PLATE
[5] = Test System: AMES SALMONELLA TYPHIMURIUM, Strain/Indicator: TA100, Metabolic Activation: NONE, Method: PREINCUBATION
[6] = Test System: AMES SALMONELLA TYPHIMURIUM, Strain/Indicator: TA100, Metabolic Activation: NONE, Method: STANDARD PLATE
[7] = Test System: AMES SALMONELLA TYPHIMURIUM, Strain/Indicator: TA100, Metabolic Activation: RAT, LIVER, S-9, AROCLOR 1254, Method: STANDARD PLATE
[8] = Test System: AMES SALMONELLA TYPHIMURIUM, Strain/Indicator: TA1535, Metabolic Activation: NONE, Method: PREINCUBATION
[9] = Test System: AMES SALMONELLA TYPHIMURIUM, Strain/Indicator: TA1535, Metabolic Activation: NONE, Method: STANDARD PLATE
[10] = Test System: AMES SALMONELLA TYPHIMURIUM, Strain/Indicator: TA1535, Metabolic Activation: RAT, LIVER, S-9, AROCLOR 1254, Method: STANDARD PLATE
[11] = Test System: AMES SALMONELLA TYPHIMURIUM, Strain/Indicator: TA1537, Metabolic Activation: NONE, Method: PREINCUBATION
[12] = Test System: AMES SALMONELLA TYPHIMURIUM, Strain/Indicator: TA1537, Metabolic Activation: NONE, Method: STANDARD PLATE
[13] = Test System: AMES SALMONELLA TYPHIMURIUM, Strain/Indicator: TA1537, Metabolic Activation: RAT, LIVER, S-9, AROCLOR 1254, Method: STANDARD PLATE
[14] = Test System: AMES SALMONELLA TYPHIMURIUM, Strain/Indicator: TA1538, Metabolic Activation: NONE, Method: STANDARD PLATE
[15] = Test System: AMES SALMONELLA TYPHIMURIUM, Strain/Indicator: TA1538, Metabolic Activation: RAT, LIVER, S-9, AROCLOR 1254, Method: STANDARD PLATE

Measured: mutagenic call

c1cnc2c(c1)ccc1c2ccc2cccnc21
active: Test System: AMES SALMONELLA TYPHIMURIUM, Strain/Indicator: TA100, Metabolic Activation: POOLED HUMAN LIVER MICROSOMES, Method: PREINCUBATION active; positive | Test System: AMES SALMONELLA TYPHIMURIUM, Strain/Indicator: TA100, Metabolic Activation: RAT, LIVER, S-9, PHENOBARBITAL AND 5,6-BENZOFLAVONE, Method: PREINCUBATION active; positive | Test System: Ames Salmonella typhimurium, Strain/Indicator: TA100, Metabolic Activation: Rat, Liver, S-9 active; positive | Test System: LACZ TRANSGENIC MOUSE (MUTATM MOUSE), Strain/Indicator: LACZ MUTANT FREQUENCY, Method: LIVER, SPLEEN, LUNG, KIDNEY, BONE MARROW, COLON HARVESTED 7 D AFTER LAST DOSE, DNA ISOLATED active; positive; g:c to t:a transversions in all organs

O=c1[nH]c(=O)n([C@H]2C[C@H](O)[C@@H](CO)O2)cc1/C=C/Br
inactive: Test System: AMES SALMONELLA TYPHIMURIUM, Strain/Indicator: TA97, Metabolic Activation: NONE, Method: PREINCUBATION inactive; negative | Test System: AMES SALMONELLA TYPHIMURIUM, Strain/Indicator: TA97, Metabolic Activation: RAT, LIVER, S-9, AROCLOR 1254, Method: PREINCUBATION inactive; negative | [1] inactive; negative | [2] inactive; negative | [3] inactive; negative | [4] inactive; negative | [5] inactive; negative | [6] inactive; negative | Test System: AMES SALMONELLA TYPHIMURIUM, Strain/Indicator: TA100, Metabolic Activation: RAT, LIVER, S-9, AROCLOR 1254, Method: PREINCUBATION inactive; negative | [7] inactive; negative | Test System: AMES SALMONELLA TYPHIMURIUM, Strain/Indicator: TA102, Metabolic Activation: NONE, Method: PREINCUBATION inactive; negative | Test System: AMES SALMONELLA TYPHIMURIUM, Strain/Indicator: TA102, Metabolic Activation: RAT, LIVER, S-9, AROCLOR 1254, Method: PREINCUBATION inactive; negative | Test System: AMES SALMONELLA TYPHIMURIUM, Strain/Indicator: TA104, Metabolic Activation: NONE, Method: PREINCUBATION inactive; negative | Test System: AMES SALMONELLA TYPHIMURIUM, Strain/Indicator: TA104, Metabolic Activation: RAT, LIVER, S-9, AROCLOR 1254, Method: PREINCUBATION inactive; negative | [8] inactive; negative | [9] inactive; negative | Test System: AMES SALMONELLA TYPHIMURIUM, Strain/Indicator: TA1535, Metabolic Activation: RAT, LIVER, S-9, AROCLOR 1254, Method: PREINCUBATION inactive; negative | [10] inactive; negative | [11] inactive; negative | [12] inactive; negative | Test System: AMES SALMONELLA TYPHIMURIUM, Strain/Indicator: TA1537, Metabolic Activation: RAT, LIVER, S-9, AROCLOR 1254, Method: PREINCUBATION inactive; negative | [13] inactive; negative | Test System: AMES SALMONELLA TYPHIMURIUM, Strain/Indicator: TA1538, Metabolic Activation: NONE, Method: PREINCUBATION inactive; negative | [14] inactive; negative | Test System: AMES SALMONELLA TYPHIMURIUM, Strain/Indicator: TA1538, Metabolic Activation: RAT, LIVER, S-9, AROCLOR 1254, Method: PREINCUBATION inactive; negative | [15] inactive; negative | Test System: CHINESE HAMSTER OVARY, Strain/Indicator: CHO-K1-BH4 (HGPRT), Metabolic Activation: NONE inactive; negative | Test System: CHINESE HAMSTER V-79, Strain/Indicator: V-79/8-AZAGUANINE, Metabolic Activation: NONE inactive; negative | Test System: MOUSE LYMPHOMA, Strain/Indicator: L5178Y (TK+/TK-), Metabolic Activation: RAT, LIVER, S-9, AROCLOR 1254, Method: SUSPENSION/PLATE inactive; negative | Test System: UDS RAT PRIMARY HEPATOCYTES, Strain/Indicator: THY INCORP (NON-S-PHASE), Metabolic Activation: NONE inactive; negative | Test System: UDS RODENT HEPATOCYTES, Strain/Indicator: THY INCORP, Metabolic Activation: NONE inactive; negative
active: Test System: MOUSE LYMPHOMA, Strain/Indicator: L5178Y (TK+/TK-), Metabolic Activation: NONE, Method: SUSPENSION/PLATE active; positive

C=C(Br)C(C)=O
active: [6] active; positive

Cn1cnc2cc([N+](=O)[O-])ccc21
inactive: [2] inactive; negative

CCOC(=O)c1cccc2cccnc12
inactive: [2] inactive; negative | [4] inactive; negative | [6] inactive; negative | [7] inactive; negative | [9] inactive; negative | [10] inactive; negative | [12] inactive; negative | [13] inactive; negative

CNCc1ccc(CSCCNC(=NCC(O)c2ccc(O)cc2)NS(C)(=O)=O)o1 (stereo not drawn)
inactive: [1] inactive; negative | Test System: AMES SALMONELLA TYPHIMURIUM, Strain/Indicator: TA98, Metabolic Activation: RAT LIVER S-9, PHENOBARBITAL AND 5,6-BENZOFLAVONE, Method: PREINCUBATION inactive; negative | [5] inactive; negative | Test System: AMES SALMONELLA TYPHIMURIUM, Strain/Indicator: TA100, Metabolic Activation: RAT LIVER S-9, PHENOBARBITAL AND 5,6-BENZOFLAVONE, Method: PREINCUBATION inactive; negative | [8] inactive; negative | Test System: AMES SALMONELLA TYPHIMURIUM, Strain/Indicator: TA1535, Metabolic Activation: RAT LIVER S-9, PHENOBARBITAL AND 5,6-BENZOFLAVONE, Method: PREINCUBATION inactive; negative | [11] inactive; negative | Test System: AMES SALMONELLA TYPHIMURIUM, Strain/Indicator: TA1537, Metabolic Activation: RAT LIVER S-9, PHENOBARBITAL AND 5,6-BENZOFLAVONE, Method: PREINCUBATION inactive; negative | Test System: E.COLI, Strain/Indicator: WP2 UVRA, Metabolic Activation: NONE, Method: PREINCUBATION inactive; negative | Test System: E.COLI, Strain/Indicator: WP2 UVRA, Metabolic Activation: RAT LIVER S-9, PHENOBARBITAL AND 5,6-BENZOFLAVONE, Method: PREINCUBATION inactive; negative

Cc1ccc(N=Nc2ccc(N(CCO)CCO)cc2)cc1
inactive: Test System: AMES SALMONELLA TYPHIMURIUM, Strain/Indicator: TA98, Metabolic Activation: HAMSTER, LIVER, S-9, AROCLOR 1254, Method: STANDARD PLATE inactive; negative | [2] inactive; negative | [3] inactive; negative | [4] inactive; negative | [6] inactive; negative | [7] inactive; negative | [9] inactive; negative | [10] inactive; negative | [12] inactive; negative | [13] inactive; negative | [14] inactive; negative | [15] inactive; negative
